Read-outs that look alike come from different tables or passages of the source. Starred links: 1 amine or outer side, 2 acyl side, 3 side chain; linkers in the order of their positions; H or OH if unused. Positions of bridges follow the written chain, without caps; N, C: chain ends. Non-standard residues stand in square brackets, D forms with d. Residues, ends and D or L forms follow the SMILES beside them. *: point of attachment. X13 = O=C(O)c1ccc(-n2cc(C[C@H](N[*:1])C(=O)[*:2])c3ccccc32)cc1; X6 = CS(=O)(=O)c1ccc(-c2ccc(C[C@H](N[*:1])C(=O)[*:2])cc2)cc1; Phe(3-OCH2COOH) = N[C@@H](Cc1cccc(OCC(=O)O)c1)C(=O)O; NMePhe(4-CH2NH2) = CN[C@@H](Cc1ccc(CN)cc1)C(=O)O; Phe(4-COOH) = N[C@@H](Cc1ccc(C(=O)O)cc1)C(=O)O; Trp(7-aza) = N[C@@H](Cc1c[nH]c2ncccc12)C(=O)O; Piperidinyl(4-CH2COOH) = O=C(O)CC1CCN(*)CC1; 3Pal(6-NH2) = Nc1ccc(C[C@H](N)C(=O)O)cn1; Gly(decyl) = CCCCCCCCCC[C@H](N)C(=O)O; Gly(N(CH2)3COOH) = O=C(O)CCCNCC(=O)O; NMe4Pal = CN[C@@H](Cc1ccncc1)C(=O)O; X1 = CCCCCCC[C@H](N[*:1])C(=O)[*:2]; NMeF = CN[C@@H](Cc1ccccc1)C(=O)O; 4Pal = N[C@@H](Cc1ccncc1)C(=O)O; NMeE = CN[C@@H](CCC(=O)O)C(=O)O; dAad = N[C@H](CCCC(=O)O)C(=O)O; Ahp(2) = CCCCC[C@H](N)C(=O)O; NMeA = CN[C@@H](C)C(=O)O; Dap = NC[C@H](N)C(=O)O; Sar = CNCC(=O)O
Key:
GDF-11 = target: T1, GDF-11 (Homo sapiens, UniProt O95390); test: HepG2 reporter gene assay, Evaluation Procedure (2): 2-concentrations assay, GDF-11 inhibition; assay type: cell-based; settings: for inhibition at 0.03 µM: HepG2, peptide 30nM, read-out: GDF11 Inhibition 30nM; for inhibition at 0.03 µM / inhibition at 0.1 µM: GDF-11 10 ng/mL; for inhibition at 0.1 µM: HepG2, peptide 100nM, read-out: GDF11 Inhibition 100nM
T1 construct: purchased R&D systems 1958-GD-G8/CF
T1 sequence (O95390 299-407): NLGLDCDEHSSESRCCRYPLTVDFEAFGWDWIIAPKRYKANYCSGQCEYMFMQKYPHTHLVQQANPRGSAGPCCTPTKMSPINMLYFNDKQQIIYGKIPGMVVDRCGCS
Method in brief: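 HepG2 cells carrying the transfected pGL3(CAGA)12-luc reporter, a pGL3 vector with luciferase placed downstream of 12 CAGA repeats, were stimulated with GDF-11 at a final 10 ng/mL together with test peptide. Blank wells received no GDF-11 and no peptide. Plates were incubated 20 to 24 hours at 37°C with 5% CO2. Luminescence from One-Glo substrate was read to calculate percent inhibition.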

Myostatin = target: T2, Myostatin (Homo sapiens, UniProt O14793); test: HepG2 reporter gene assay, Evaluation Procedure (2): 2-concentrations assay, myostatin inhibition; assay type: cell-based
T2 construct: active myostatin (also called mature myostatin) is a homodimer consisting of two C-terminal growth factor domains; purchased R&D systems 788-G8/CF
T2 sequence (O14793 267-375): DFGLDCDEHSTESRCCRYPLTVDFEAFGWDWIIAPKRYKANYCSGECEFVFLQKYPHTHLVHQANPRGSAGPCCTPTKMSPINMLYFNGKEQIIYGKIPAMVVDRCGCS
Method in brief: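 HepG2 cells (HB-8065, ATCC) carrying the transfected pGL3(CAGA)12-luc reporter plasmid were treated with myostatin (788-G8/CF, R&D systems) at a final concentration of 10 ng/mL plus peptide and incubated at 37°C, 5% CO2 for 20 to 24 hours. Luminescence was read after adding PBS mixed 1:1 with One-Glo substrate, and inhibition rate was calculated.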

[1] = HepG2, read-out: inhibition rate (myostatin inhibition assay)
[2] = peptide 30nM, Myostatin 10 ng/mL, HepG2, read-out: Myostatin Inhibition 30nM
[3] = peptide 100nM, Myostatin 10 ng/mL, HepG2, read-out: Myostatin Inhibition 100nM
[4] = HepG2, first GDF-11 column of Table 7-3/7-4, GDF-11 10 ng/mL, peptide at the lower of the 2 concentrations, read-out: inhibition rate (GDF-11 inhibition assay)
[5] = HepG2, second GDF-11 column of Table 7-3/7-4, GDF-11 10 ng/mL, peptide at the higher of the 2 concentrations, read-out: inhibition rate (GDF-11 inhibition assay)
[6] = Table 7-3/7-4, myostatin 10 ng/mL, peptide at the higher of the 2 concentrations, HepG2, read-out: inhibition rate (myostatin inhibition assay)
[7] = Table 7-3/7-4, myostatin 10 ng/mL, peptide at the lower of the 2 concentrations, HepG2, read-out: inhibition rate (myostatin inhibition assay)

Row | SMILES | inhibition at 0.03 µM (GDF-11) [%] | inhibition at 0.1 µM (GDF-11) [%] | inhibition at 0.03 µM (Myostatin; [2]) [%] | inhibition at 0.1 µM (Myostatin; [3]) [%] | further results
1 | CCCCCCCCCC[C@@H]1NC(=O)[C@H](Cc2ccccc2)N(C)C(=O)[C@H](CCCNC(=N)N)NC(=O)[C@H](Cc2ccc(C(=O)O)cc2)NC(=O)[C@H](Cc2cccc(OCC(=O)O)c2)NC(=O)[C@H]2CCCN2C(=O)[C@H]([C@@H](C)CC)NC(=O)[C@H](Cc2ccccc2)N(C)C(=O)[C@H](Cc2ccc(O)cc2)NC(=O)[C@H](Cc2ccc(-c3ccc(S(C)(=O)=O)cc3)cc2)NC(=O)[C@H](C)NC(=O)[C@H](C)NC(=O)CSC[C@H](C(=O)N2CCC(CC(=O)O)CC2)NC(=O)[C@H](Cc2ccccc2)N(C)C(=O)[C@H](CCC(=O)O)N(C)C1=O [Myostatin_99_v342] ({CH2CO}-AA[X6]Y[NMeF]I[dP][Phe(3-OCH2COOH)][Phe(4-COOH)]R[NMeF][Gly(decyl)][NMeE][NMeF][dC]-{Piperidinyl(4-CH2COOH)}; thioether N-15) |  |  |  |  | inhibition (GDF-11; HepG2, read-out: inhibition rate (GDF-11 inhibition assay), Table 7-3/7-4, GDF-11 10 ng/mL, peptide at the higher of the 2 concentrations): 47%; inhibition (GDF-11; HepG2, read-out: inhibition rate (GDF-11 inhibition assay), Table 7-3/7-4, GDF-11 10 ng/mL, peptide at the lower of the 2 concentrations): 0%; inhibition at 0.03 µM (Myostatin; [1]): 100%; inhibition at 0.1 µM (Myostatin; [1]): 100%
2 | CCCCC[C@@H]1NC(=O)[C@H](Cc2ccccc2)N(C)C(=O)[C@H](CCCNC(=N)N)NC(=O)[C@H](Cc2ccc(C(=O)O)cc2)NC(=O)[C@H](Cc2cccc(OCC(=O)O)c2)NC(=O)CN(C)C(=O)[C@H]([C@@H](C)CC)NC(=O)[C@H](Cc2ccccc2)N(C)C(=O)[C@H](Cc2ccc(O)cc2)NC(=O)[C@H](Cc2c[nH]c3ccccc23)NC(=O)[C@H](C)NC(=O)[C@H](C)N(C)C(=O)CSC[C@H](C(=O)O)NC(=O)[C@H](Cc2ccccc2)N(C)C(=O)[C@H](C)N(C)C1=O [Myostatin_99_v240] ({CH2CO}-[NMeA]AWY[NMeF]I[Sar][Phe(3-OCH2COOH)][Phe(4-COOH)]R[NMeF][Ahp(2)][NMeA][NMeF][dC]-OH; thioether N-15) | 0 | 0 | 69 | 91 | 
3 | CCCCCCC[C@@H]1NC(=O)[C@H](Cc2ccccc2)N(C)C(=O)[C@H](CCCNC(=N)N)NC(=O)[C@H](Cc2ccc(C(=O)O)cc2)NC(=O)[C@H](Cc2cccc(OCC(=O)O)c2)NC(=O)CN(C)C(=O)[C@H]([C@@H](C)CC)NC(=O)[C@H](Cc2ccccc2)N(C)C(=O)[C@H](Cc2ccc(O)cc2)NC(=O)[C@H](Cc2c[nH]c3ccccc23)NC(=O)[C@H](C)NC(=O)[C@H](C)NC(=O)CSC[C@H](C(=O)O)NC(=O)[C@H](Cc2ccncc2)N(C)C(=O)[C@H](C)N(C)C1=O [Myostatin_99_v213] ({CH2CO}-AAWY[NMeF]I[Sar][Phe(3-OCH2COOH)][Phe(4-COOH)]R[NMeF][X1][NMeA][NMe4Pal][dC]-OH; thioether N-15) | 0 | 0 | 90 | 98 | 
4 | CCCCCCC[C@@H]1NC(=O)[C@@H]2Cc3ccc(cc3)CNC(=O)CC[C@@H](C(=O)N[C@@H](C)C(=O)N[C@@H](Cc3cn(-c4ccc(C(=O)O)cc4)c4ccccc34)C(=O)N[C@@H](Cc3ccc(O)cc3)C(=O)N(C)[C@@H](Cc3ccccc3)C(=O)N[C@@H]([C@@H](C)CC)C(=O)N3CCC[C@@H]3C(=O)N[C@@H](Cc3cccc(OCC(=O)O)c3)C(=O)N[C@@H](Cc3ccc(C(=O)O)cc3)C(=O)N[C@@H](CCCNC(=N)N)C(=O)N2C)N(C)C(=O)CSC[C@H](C(=O)O)NC(=O)[C@H](Cc2ccccc2)N(C)C(=O)[C@H](C)N(C)C1=O [Myostatin_99_v423] ({CH2CO}-[NMeE]A[X13]Y[NMeF]I[dP][Phe(3-OCH2COOH)][Phe(4-COOH)]R[NMePhe(4-CH2NH2)][X1][NMeA][NMeF][dC]-OH; lactam 1-11; thioether N-15) |  |  |  |  | inhibition (GDF-11; [4]): 0%; inhibition (GDF-11; [5]): 0%; inhibition at 0.1 µM (Myostatin; [6]): 100%; inhibition at 0.03 µM (Myostatin; [7]): 100%
5 | CC[C@H](C)[C@@H]1NC(=O)[C@H](Cc2ccccc2)N(C)C(=O)[C@H](Cc2ccc(O)cc2)NC(=O)[C@H](Cc2c[nH]c3ccccc23)NC(=O)[C@H](CN)NC(=O)[C@H](C)NC(=O)CSC[C@H](C(=O)N[C@@H](CN)C(N)=O)NC(=O)[C@H](Cc2ccccc2)N(C)C(=O)[C@H](C)N(C)C(=O)[C@H](CC(C)C)NC(=O)[C@H](Cc2ccccc2)N(C)C(=O)[C@H](CCCNC(=N)N)NC(=O)[C@H](Cc2ccc(O)cc2)NC(=O)[C@H](Cc2ccc(O)cc2)NC(=O)CN(C)C1=O [Myostatin_99_Variant_08] ({CH2CO}-A[Dap]WY[NMeF]I[Sar]YYR[NMeF]L[NMeA][NMeF][dC][Dap]-NH2; thioether N-15) | 7 | 22 | 72 | 92 | 
6 | CCCCCCC[C@@H]1NC(=O)[C@H](Cc2ccccc2)N(C)C(=O)[C@H](CCCNC(=N)N)NC(=O)[C@H](Cc2ccc(C(=O)O)cc2)NC(=O)[C@H](Cc2cccc(OCC(=O)O)c2)NC(=O)[C@H](C)N(C)C(=O)[C@H]([C@@H](C)CC)NC(=O)[C@H](Cc2ccccc2)N(C)C(=O)[C@H](Cc2ccc(O)cc2)NC(=O)[C@H](Cc2c[nH]c3ccccc23)NC(=O)[C@H](C)NC(=O)CN(CCCC(=O)O)C(=O)CCC[C@H](C(=O)O)NC(=O)[C@H](Cc2ccccc2)N(C)C(=O)[C@H](C)N(C)C1=O [Myostatin_99_v434] ([Gly(N(CH2)3COOH)]AWY[NMeF]I[NMeA][Phe(3-OCH2COOH)][Phe(4-COOH)]R[NMeF][X1][NMeA][NMeF][dAad]-OH; lactam N-15) |  |  |  |  | inhibition (GDF-11; [4]): 0%; inhibition (GDF-11; [5]): 0%; inhibition at 0.1 µM (Myostatin; [6]): 100%; inhibition at 0.03 µM (Myostatin; [7]): 98%
7 | CC[C@H](C)[C@@H]1NC(=O)[C@H](Cc2ccccc2)N(C)C(=O)[C@H](Cc2ccc(O)cc2)NC(=O)[C@H](Cc2c[nH]c3ncccc23)NC(=O)[C@H](C)NC(=O)[C@H](C)NC(=O)CSC[C@H](C(=O)N[C@H](CO)C(=O)N[C@H](CO)C(=O)N[C@H](CO)C(=O)N[C@H](CCCCN)C(=O)O)NC(=O)[C@H](Cc2ccccc2)N(C)C(=O)[C@H](C)N(C)C(=O)[C@H](CC(C)C)NC(=O)[C@H](Cc2ccccc2)N(C)C(=O)[C@H](CCCNC(=N)N)NC(=O)[C@H](Cc2ccc(C(=O)O)cc2)NC(=O)[C@H](Cc2ccncc2)NC(=O)CN(C)C1=O [Myostatin_99_v36] ({CH2CO}-AA[Trp(7-aza)]Y[NMeF]I[Sar][4Pal][Phe(4-COOH)]R[NMeF]L[NMeA][NMeF][dC][dS][dS][dS][dK]-OH; thioether N-15) | 2 | 18 | 92 | 98 | 
8 | CC[C@H](C)[C@@H]1NC(=O)[C@H](Cc2ccccc2)N(C)C(=O)[C@H](Cc2ccc(N)nc2)NC(=O)[C@H](Cc2c[nH]c3ccccc23)NC(=O)[C@H](C)NC(=O)CN(CCCC(=O)O)C(=O)CSC[C@H](C(N)=O)NC(=O)[C@H](Cc2ccccc2)N(C)C(=O)[C@H](C)N(C)C(=O)[C@H](CC(C)C)NC(=O)[C@H](Cc2ccccc2)N(C)C(=O)[C@H](CCCNC(=N)N)NC(=O)[C@H](Cc2ccc(C(=O)O)cc2)NC(=O)[C@H](Cc2ccncc2)NC(=O)CN(C)C1=O [Myostatin_99_Variant_25] ({CH2CO}-[Gly(N(CH2)3COOH)]AW[3Pal(6-NH2)][NMeF]I[Sar][4Pal][Phe(4-COOH)]R[NMeF]L[NMeA][NMeF][dC]-NH2; thioether N-15) | 0 | 0 | 20 | 50 | 
9 | CC[C@H](C)[C@@H]1NC(=O)[C@H](Cc2ccccc2)N(C)C(=O)[C@H](Cc2ccc(O)cc2)NC(=O)[C@H](Cc2c[nH]c3ccccc23)NC(=O)[C@H](CCCNC(=N)N)NC(=O)[C@H](C)NC(=O)CSC[C@@H](C(=O)N[C@@H](CN)C(N)=O)NC(=O)[C@H](Cc2ccccc2)N(C)C(=O)[C@H](C)N(C)C(=O)[C@H](CC(C)C)NC(=O)[C@H](Cc2ccccc2)N(C)C(=O)[C@H](CCCNC(=N)N)NC(=O)[C@H](Cc2ccc(O)cc2)NC(=O)[C@H](Cc2ccc(O)cc2)NC(=O)CN(C)C1=O [Myostatin_000099_16Dap] ({CH2CO}-ARWY[NMeF]I[Sar]YYR[NMeF]L[NMeA][NMeF]C[Dap]-NH2; thioether N-15) | 0 | 11 | 56 | 83 | 

From patent publication EP4786487A1, “PEPTIDE” (Peptidream Inc, priority 2023, dated 2025)
